# Data as given in PubChem BioAssay AID1259408 (Genetic Toxicology Data Bank (GENE-TOX), 2018).
# Activity calls are given as the source filed them. The rule behind the calls is not given here.
# Tested on: GENE-TOX genotoxicity assays, various organisms and cells
# Assay: GENE-TOX mutagenicity studies
# Conditions: for call: Assay Type: In vivo carcinogenicity studies
# [1] = Species/Cell Type: Bacillus subtilis (H17 vs M45), Assay Type: Rec-assay, spot test, DNA effects (bacterial DNA repair), Assay Code: REWT, Evaluation Type: Evaluation A (Pre-1980)
# [2] = Species/Cell Type: Bacillus subtilis (H17 vs M45T), Assay Type: Rec-assay, spot test, DNA effects (bacterial DNA repair), Assay Code: REXT, Evaluation Type: Evaluation A (Pre-1980)
# [3] = Species/Cell Type: Bacillus subtilis (H17 vs M45), Assay Type: Rec-assay, spot test, DNA effects (bacterial DNA repair), Assay Code: REW-, Evaluation Type: Evaluation A (Pre-1980)
compound,measurement,setting,value
CCN(Cc1cccc(S(=O)(=O)O)c1)c1ccc(C(=C2C=CC(=[N+](CC)Cc3cccc(S(=O)(=O)[O-])c3)C=C2)c2ccc(S(=O)(=O)O)cc2)cc1,mutagenic call,[1],no conclusion
same,mutagenic call,[2],no conclusion
same,mutagenic call,"Species/Cell Type: Salmonella typhimurium (one or more of the five standard strains: TA98, TA100, TA1535, TA1537, and TA1538), Assay Type: Histidine reverse gene mutation, Ames assay, Assay Code: SAL-, Evaluation Type: Evaluation A (Pre-1980)",inactive; negative
CCCCOc1ccc2nc3cc(Cl)ccc3c(NCCCN(CC)CCCl)c2n1,mutagenic call,"Species/Cell Type: Chinese hamster ovary (CHO) cells, Assay Type: Forward gene mutation at the HPRT locus, Assay Code: CHO+, Evaluation Type: Evaluation B (Post-1980)",active; positive
CC(=O)C(N=Nc1ccc(-c2ccc(N=NC(C(C)=O)C(=O)Nc3ccccc3)c(Cl)c2)cc1Cl)C(=O)Nc1ccccc1 (centres undefined),call,"Species/Cell Type: Nonhuman, Assay Code: CCG-, Evaluation Type: Evaluation A (Pre-1980)",inactive; negative
CN(C)c1ccc(C(=C2C=CC(=[N+](C)C)C=C2)c2ccc(N(C)C)cc2)cc1,mutagenic call,"Species/Cell Type: Bacillus subtilis (H17 vs M45), Assay Type: Rec-assay, spot test, DNA effects (bacterial DNA repair), Assay Code: REW+, Evaluation Type: Evaluation A (Pre-1980)",active; positive
same,mutagenic call,[2],no conclusion
same,mutagenic call,"Species/Cell Type: Drosophila melanogaster, Assay Type: Sex-linked recessive lethal gene mutation, Assay Code: SRLT, Evaluation Type: Evaluation A (Pre-1980)",no conclusion
same,mutagenic call,"Species/Cell Type: Saccharomyces cerevisiae, Assay Type: Mitotic recombination or gene conversion, Assay Code: YEH-, Evaluation Type: Evaluation A (Pre-1980)",inactive; negative
same,mutagenic call,"Species/Cell Type: Salmonella typhimurium (one or more of the five standard strains: TA98, TA100, TA1535, TA1537, and TA1538), Assay Type: Histidine reverse gene mutation, Ames assay, Assay Code: SALT, Evaluation Type: Evaluation A (Pre-1980)",no conclusion
Cc1cc(O)c2c(c1)C(=O)c1cc(O)cc(O)c1C2=O,mutagenic call,[3],inactive; negative
same,mutagenic call,"Species/Cell Type: Escherichia coli polA (W3119 vs P3478), Assay Type: Rec-assay, DNA effects (bacterial DNA repair), Assay Code: RE1T, Evaluation Type: Evaluation A (Pre-1980)",no conclusion
Clc1c(N2CC2)nc(N2CC2)nc1N1CC1,mutagenic call,"Species/Cell Type: Aspergillus nidulans, Assay Type: Reverse gene mutation, Assay Code: ASR+, Evaluation Type: Evaluation A (Pre-1980)",active; positive
O=C1O[C@H]([C@H](O)CO)C(O)=C1O,mutagenic call,"Species/Cell Type: Human, Assay Type: Sister-chromatid exchange (SCE) in vitro, Assay Code: SC1T, Evaluation Type: Evaluation B (Post-1980)",no conclusion
O=C[C@H](NC(=O)N(CCCl)N=O)[C@@H](O)[C@H](O)[C@H](O)CO,mutagenic call,"Species/Cell Type: Chinese hamster lung (V79) cells, Assay Type: Forward gene mutation at the HPRT or ouabain locus, Assay Code: V79+, Evaluation Type: Evaluation A (Pre-1980)",active; positive
same,mutagenic call,"Species/Cell Type: Drosophila melanogaster, Assay Type: Sex-linked recessive lethal gene mutation, Assay Code: SRL+, Evaluation Type: Evaluation A (Pre-1980)",active; positive
same,call,"Species/Cell Type: Nonhuman, Assay Code: CCG+L, Evaluation Type: Evaluation A (Pre-1980)",active; positive
same,mutagenic call,"Species/Cell Type: Nonhuman, Assay Type: Sister-chromatid exchange (SCE) in vitro, Assay Code: SC2+D, Dose Response: With dose response, Evaluation Type: Evaluation B (Post-1980)",active; positive
same,mutagenic call,"Species/Cell Type: Saccharomyces cerevisiae, Assay Type: Mitotic recombination or gene conversion, Assay Code: YEC+, Evaluation Type: Evaluation A (Pre-1980)",active; positive
Nc1nc(-c2ccccc2)cs1,mutagenic call,[3],inactive; negative
CNC(=O)Oc1ccccc1Cl,mutagenic call,[1],no conclusion
same,mutagenic call,"Species/Cell Type: Bacillus subtilis (H17 vs M45T), Assay Type: Rec-assay, spot test, DNA effects (bacterial DNA repair), Assay Code: REX-, Evaluation Type: Evaluation A (Pre-1980)",inactive; negative
same,mutagenic call,"Species/Cell Type: Escherichia coli WP2, Assay Type: Tryptophan reverse gene mutation, Assay Code: WP2-, Evaluation Type: Evaluation A (Pre-1980)",inactive; negative
Clc1ccc(COC(Cn2ccnc2)c2ccc(Cl)cc2Cl)cc1 (centres undefined),mutagenic call,"Species/Cell Type: Aspergillus nidulans, Assay Type: Aneuploidy, chromosome aberrations, Assay Code: ASN+, Evaluation Type: Evaluation A (Pre-1980)",active; positive
CN=NNc1ccccc1,mutagenic call,"Species/Cell Type: Neurospora crassa, Assay Type: Forward gene mutation, Assay Code: NEF+, Evaluation Type: Evaluation A (Pre-1980)",active; positive
Cc1cccc(C)c1O,mutagenic call,"Species/Cell Type: Human lymphocytes, Assay Type: Sister-chromatid exchange (SCE) in vitro, Assay Code: SCLT, Evaluation Type: Evaluation B (Post-1980)",no conclusion
Nc1ncnc2c1ncn2[C@@H]1O[C@H](CO)C[C@H]1O,mutagenic call,"Species/Cell Type: Fischer rat embryo (RLV/1706) cells, Assay Type: Cell transformation, viral enhanced, Assay Code: CTR-, Evaluation Type: Evaluation A (Pre-1980)",inactive; negative
same,mutagenic call,"Species/Cell Type: Nonhuman, Assay Type: Sister-chromatid exchange (SCE) in vitro, Assay Code: SC2T, Evaluation Type: Evaluation B (Post-1980)",no conclusion
CC(COc1ccccc1)N(CCCl)Cc1ccccc1 (centres undefined),call,"Species/Cell Type: Nonhuman, Assay Code: CCG+, Evaluation Type: Evaluation A (Pre-1980)",active; positive
